Assays:
[1] = system: B-16 mouse melanoma cells; assay: Melanin generation inhibitory effects in terms of cells; format: cell-based; details: 72 h, 5 μg/ml, cultured for 3 days, relative to control, read-out: Inhibition rate (%) of melanin generation
Experimental: Each of the compounds prepared according to the procedures described in Examples 1 to 29 and hydroquinone were added to a culture solution containing B-16 mouse melanoma cells, followed by experiments to determine whitening effects in terms of cells (Lotan R., Lotan D. Cancer Res., 40, pp. 3345-3350, 1980). After treating the compounds to have final concentrations of […] and […], respectively, each of these compounds was added to a culture medium containing B-16 melanoma cells and cultured for 3 days. Then, these cells were treated using trypsin, separated from a culture vessel and centrifuged, then, melanin was extracted from the cells. Melanin was dissolved by adding 1 ml of 1N sodium hydroxide solution to the extract and subjected to measurement of absorbance at 475 nm, and an amount of the generated melanin was expressed by an absorbance per unit number of cells (10^6 cells) (this procedure was repeated three times). An amount of the generated melanin relative to control was calculated as an inhibition rate (%), and results thereof are shown in Table 1 below.

[2] = system: B-16 mouse melanoma cells; assay: as above; format: cell-based; details: for inhibition at 20 µg/mL: 20 μg/ml
[3] = system: B-16 mouse melanoma cells; details: at 1 μg/ml or more
[4] = Mus musculus, 72 h, cultured for 3 days, relative to control, read-out: Inhibition rate (%) of melanin generation

| SMILES | inhibition at 5 µg/mL [1] [%] | inhibition at 20 µg/mL [2, 4] [%] | also measured |
| --- | --- | --- | --- |
| CCOC(=O)c1ccccc1OCC [Example 1, 2-ethoxy benzoic acid ethyl ester] | 31 | 46 | – |
| CCCCCOC(=O)c1ccc2ccccc2c1OCCCCC [Example 16, 1-pentyloxy-2-naphthoic acid pentyl ester] | 41 | 52 | – |
| CC(=O)Oc1ccccc1C(C)=O [Example 23, acetic acid 2-acetyl-phenyl ester] | 27 | 41 | – |
| CCCCOC(=O)c1cccc(OCCCC)c1 [Example 10, 3-butoxy benzoic acid butyl ester] | 38 | 54 | – |
| CCCCCOc1ccccc1CCC [Example 25, 1-pentyloxy-2-propyl-benzene] | 16 | 31 | – |
| CCCCCCOC(=O)c1ccccc1OCCCCCC [Example 5, 2-hexyloxy benzoic acid hexyl ester] | 52 | 67 | – |
| CCCCCCCCOC(=O)c1cccc(OCCCCCCCC)c1 [Example 13, 3-octyloxy benzoic acid octyl ester] | 29 | 41 | – |
| CCCCCOC(=O)c1cc(C(C)=O)ccc1OCCCCC [Example 15, 5-acetyl-2-pentyloxy benzoic acid pentyl ester] | 39 | 57 | – |
| CCCCCOc1cccc(C(C)=O)c1 [Example 21, 1-(3-pentyloxy-phenyl)-ethanone] | 25 | 45 | – |
| CCCCCOC(=O)c1c(OCCCCC)cnc2ccccc12 [Example 19, 3-pentyloxy-quinoline-4-carboxylic acid pentyl ester] | 38 | 59 | – |
| CCCCCCCCCCOC(=O)c1ccccc1OCCCCCCCCCC [Example 7, 2-decyloxy benzoic acid decyl ester] | 22 | 35 | – |
| CCCCC(CC)C(=O)Oc1ccccc1CCC (centres unmarked) [Example 26, 2-ethylhexanoic acid 2-propyl-phenyl ester] | 24 | 35 | – |
| Oc1ccc(O)cc1 [Hydroquinone, hydroquinone, reference compound] | – | – | cytotoxicity [3]: serious cytotoxicity; Inhibition rate (%) of melanin generation ([2]; 5 μg/ml, cultured for 3 days, relative to control): Apoptosis; inhibition at 1 µg/mL ([2]; Mus musculus, 72 h, 1 μg/ml, cultured for 3 days, relative to control, read-out: Inhibition rate (%) of melanin generation): 48%; melanin generation inhibitory effects (in words) ([2]; cultured mouse melanoma cells): strong effects of inhibiting melanin generation at a low concentration |
| CCCCC(CC)COC(=O)c1cccc(O)c1 (centres unmarked) [Example 29, 3-hydroxy benzoic acid 2-ethylhexyl ester] | 26 | 37 | – |
| CCCCCOc1ccccc1C(C)=O [Example 20, 1-(2-pentyloxy-phenyl)-ethanone] | 24 | 41 | – |
| CCCCC(CC)C(=O)Oc1ccccc1C(C)=O (centres unmarked) [Example 24, 2-ethylhexanoic acid 2-acetyl-phenyl ester] | 19 | 38 | – |
| CCCCCCOC(=O)c1cccc(OCCCCCC)c1 [Example 12, 3-hexyloxy benzoic acid hexyl ester] | 46 | 61 | – |
| CCCCCOC(=O)c1ccncc1OCCCCC [Example 18, 3-pentyloxy-4-pyridinecarboxylic acid pentyl ester] | 42 | 71 | – |
| CCCCCOc1cc2ccccc2cc1C(C)=O [Example 22, 1-(3-pentyloxy-naphthalen-2-yl)-ethanone] | 19 | 37 | – |
| CCCCCOC(=O)c1cc2ccccc2cc1OCCCCC [Example 17, 3-pentyloxy-2-naphthoic acid pentyl ester] | 38 | 52 | – |
| CCCCC(CC)COC(=O)c1ccccc1O (centres unmarked) [Example 28, 2-hydroxy benzoic acid 2-ethylhexyl ester] | 27 | 39 | – |
| CCCOC(=O)c1ccccc1OCCC [Example 2, 2-propoxy benzoic acid propyl ester] | 41 | 52 | – |
| CCCCCCCCCCOC(=O)c1cccc(OCCCCCCCCCC)c1 [Example 14, 3-decyloxy benzoic acid decyl ester] | 21 | 32 | – |
| CCCCOC(=O)c1ccccc1OCCCC [Example 3, 2-butoxy benzoic acid butyl ester] | 45 | 64 | – |
| CCOC(=O)c1cccc(OCC)c1 [Example 8, 3-ethoxy benzoic acid ethyl ester] | 27 | 42 | – |
| CCCCCCCCOC(=O)c1ccccc1OCCCCCCCC [Example 6, 2-octyloxy benzoic acid octyl ester] | 41 | 52 | – |
| CCCCC(CC)C(=O)Oc1cccc(CCC)c1 (centres unmarked) [Example 27, 2-ethylhexanoic acid 3-propyl-phenyl ester] | 23 | 41 | – |
| CCCOC(=O)c1cccc(OCCC)c1 [Example 9, 3-propoxy benzoic acid propyl ester] | 29 | 48 | – |
| CCCCCOC(=O)c1ccccc1OCCCCC [Example 4, 2-pentyloxy benzoic acid pentyl ester] | 54 | 65 | – |
| CCCCCOC(=O)c1cccc(OCCCCC)c1 [Example 11, 3-pentyloxy benzoic acid pentyl ester] | 49 | 62 | – |
